Columns and labels:
severe sepsis patients = conditions: cited from earlier work
[1] = test system: CD8 and CD4 T-cells (spleen cells)

Row | Molecule | proinflammatory cytokine levels (severe sepsis patients; human, in vivo) | mortality (severe sepsis patients; severe sepsis patients (TAK-242: subgroup with high IL-6 levels)) | toxicity for CD8 and CD4 T-cells / spleen cells [1]
1 | CCOC(=O)C1=CCCC[C@H]1S(=O)(=O)Nc1ccc(F)cc1Cl [TAK-242] | decrease proinflammatory cytokine levels | decrease mortality | –
2 | Lipopolysaccharide from Ochrobactrum intermedium strain LMG3306 [IM] | – | – | no toxic at all
